Where a name gives a salt, the structure may show the parent alone.
What was measured:
[1] = test system: haemolysate cholinesterase (erythrocyte acetylcholinesterase); experiment: Cholinesterase activity in haemolysed whole blood (Sigma Diagnostics Cholinesterase (PTC) kit); type: biochemical, human; conditions: 0 to 2.5 μg/ml added in vitro
Protocol: (§1) SIGMA DIAGNOSTICS® CHOLINESTERASE (PTC) kit, available from Sigma Diagnostics, can be used for determining the activity and selectivity of cholinesterase inhibitors.
(§2) Reactions involved in the cholinesterase assay are as follows:
(§3) Propionylthiocholine+H2O→Propionic Acid+Thiocholine
(§4) Thiocholine+5, 5′-Dithiobis-2-Nitrobenzoic Acid→5-Thio-2-Nitrobenzoic Acid
(§5) 5-Thio-2-Nitrobenzoic Acid is assessed by measuring the absorbance at 405 nm. The rate of change in absorbance at 405 nm is directly proporational to cholinesterase activity.
(§6) The activity of erythrocyte cholinesterase may be calculated on the basis of the measurement of butyrylcholinesterase (pseudocholinesterase) in serum and cholinesterase in haemolyzed whole blood (haemolysate), both measured simultaneously by the method described above, and evaluated according to the haematocrit value according to the formula
HChE=(EChE×Hctg*)+(PChE×(1-Hct*))
In the above formulae, EChE is erythrocyte cholinesterase activity, PChE is plasma cholinesterase activity, HChE is haemolysate cholinesterase activity, and Hct is haematocrit value of the sample.
Another way of assessing the cholinesterase activity is to measure the plasma cholinesterase and the cholinesterase in purified haemolyzed erythrocytes. By doing this, the values are obtained directly.
Blood samples from 3 patients were tested with the Sigma test. […]

[2] = molecular target: T1, butyrylcholinesterase (pseudocholinesterase) in serum (Homo sapiens, UniProt P06276); experiment: Cholinesterase activity in serum (Sigma Diagnostics Cholinesterase (PTC) kit); type: biochemical; conditions: 0 to 2.5 μg/ml added in vitro
T1 construct: butyrylcholinesterase (pseudocholinesterase) in serum; from tissue; host or cells: serum of patients
Protocol: as §1, §2, §3, §4, §5, §6
Blood samples from 3 patients were tested with the Sigma test. […] The results are shown below in table 1.1.

[3] = test system: patients with osteoarthritis; experiment: Treatment of patients with osteoarthritis (Example 5); type: in vivo, human
[4] = test system: patient with Rheumatoid Arthritis and anaemia; experiment: Treatment of a patient with anaemia of chronic disorder (Example 6); type: in vivo, human
Protocol: The patient was treated in the period between Jan. 3, 1997 and Jan. 20, 1997.

[5] = in vivo; cited from earlier work
[6] = test system: patients suffering from different arthritic disorders of rheumatoid origin; experiment: Treatment of patients with rheumatoid diseases (Example 7); type: in vivo, human
Description: Stiffness: Joint stiffness is a complaint covering sensations which range from slight resistance to all movements through the normal range, to blocking of certain movements due to fixed anatomical changes. Certain types of stiffness are highly characteristic, such as early morning stiffness.
Early morning stiffness occurs primarily in rheumatoid arthritis, but also in other arthritic diseases. The patient awakes with distressing, painful stiffness of all affected joints. This is gradually “worked off ” by activity over one half to three hours or more. This “limbering up time” provides a reliable measure of inflammatory activity. In osteoarthritis stiffness tends to come on later in the day and is preceded by activity.
In one of the examples given of rheumatoid patients on galantamine, the parameters evaluated were tiredness, sleep, pain, and stiffness. […] All these parameters were evaluated with a questionaire and VAS (Visual Analogue Scale) which refer to the patients' reporting as regards the severity of the symptoms, represented by a 0-100 percentage line.

[7] = room temperature; galantamine and its acid addition salts; cited from earlier work
[8] = humans; cited from earlier work

T1 sequence (P06276 29-602): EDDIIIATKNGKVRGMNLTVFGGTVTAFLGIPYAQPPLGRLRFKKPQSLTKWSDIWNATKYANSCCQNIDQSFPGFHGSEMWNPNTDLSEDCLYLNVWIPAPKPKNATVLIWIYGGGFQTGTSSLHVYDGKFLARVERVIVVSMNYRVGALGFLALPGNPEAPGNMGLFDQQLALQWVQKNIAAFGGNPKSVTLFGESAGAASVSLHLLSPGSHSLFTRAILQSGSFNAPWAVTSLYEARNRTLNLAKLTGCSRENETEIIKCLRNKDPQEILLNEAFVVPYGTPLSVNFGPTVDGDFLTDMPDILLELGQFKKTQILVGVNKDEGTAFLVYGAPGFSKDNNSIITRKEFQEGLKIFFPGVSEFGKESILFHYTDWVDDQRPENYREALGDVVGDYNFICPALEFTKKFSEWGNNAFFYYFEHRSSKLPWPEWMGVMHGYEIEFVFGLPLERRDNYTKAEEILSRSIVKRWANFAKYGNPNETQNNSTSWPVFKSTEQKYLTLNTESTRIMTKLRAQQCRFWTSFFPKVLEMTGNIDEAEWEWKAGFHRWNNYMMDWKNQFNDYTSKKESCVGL

## COc1ccc2c3c1O[C@H]1C[C@@H](O)C=C[C@@]31CCN(C)C2 [galantamine hydrobromide]
[1]
  Change of haemolysate cholinesterase activity with increased concentration: significant reduction
[2]
  Change of serum cholinesterase activity as response to addition: do not show any statistically significant changes
[3]; 10 mg per day (2 x 5 mg tablets), after three days, osteoarthritis not diagnosed
  joint pain symptoms, second patient: improvement in symptoms
[3]; 10 mg per day orally (2 x 5 mg), after seven days, maintained over 31 days, dose raised to 30 mg per day
  osteoarthritis symptoms, first volunteer: improvement in osteoarthritis symptoms
[3]; after 31 day period
  symptoms when medication was discontinued, first volunteer: Symptoms were reported to recur
[4]; 15 mg per day (3 x 5 mg orally), after 14 days
  laboratory blood tests reflecting anaemia: significant improvement
[5]
  elimination half life: over four

## COc1ccc2c3c1O[C@H]1C[C@@H](O)C=C[C@@]31CCN(C)C2 [galantamine]
[4]; 20-1-97, after treatment with 15 mg per day orally, normal 0.360-0.470, 0.342 on 3-1-97
  Haematocrit: 0.362 L/L
[4]; 20-1-97, after treatment with 15 mg per day orally, normal 3.8-10.2, 6.6 on 3-1-97
  White cells: 5.9e+09 L⁻¹
[4]; 20-1-97, after treatment with 15 mg per day orally, normal 4.00-5.8, 3.72 on 3-1-97
  Red cells: 3.94e+12 L⁻¹
[4]; 20-1-97, after treatment with 15 mg per day orally, normal 118-158, 115 on 3-1-97
  Haemoglobin: 124 g/L
[6]; 13 patients, patient numbers 1, 2, 3, 5, 9, 10 and 12
  patients reporting a significant improvement in their symptoms: 50%
[6]; one RA patient (patient number 1)
  augmentation of grip strength: over 50%
[7]
  solubility in water: only sparingly soluble
[8]
  passing the blood-brain barrier: capable of passing the blood-brain barrier
